Experimental findings from PubChem BioAssay (NCI) are described below.

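Briefly, cells in 96-well plates were exposed to five compound concentrations for 48 h, and endpoints were estimated by linear interpolation. TGI: total growth inhibition.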

Test systems include A549 NSCLC; ACHN renal; BT-549 breast; COLO 205 colon; EKVX NSCLC; HCT-15 colon; HOP-62 NSCLC; HOP-92 NSCLC; IGROV1 ovarian; MALME-3M melanoma; MDA-MB-435; MDA-N; NCI-H460 lung; OVCAR-3 ovarian; OVCAR-8 ovarian; SK-MEL-5 melanoma; SNB-19 CNS; SW-620 colon; TK-10 renal; NCI-H522 lung.
Common to all, as to experiment: growth of human tumour cells (NCI), 48 h

With `COC(=O)Nc1nc2ccc(NC(=O)c3cccs3)cc2[nH]1`, the TGI with A549 NSCLC, in the assay with ACHN renal, in the assay on BT-549 breast, in the assay with COLO 205 colon, in the assay on EKVX NSCLC and in the assay with HCT-15 colon was greater than 100 µM throughout. In addition, the TGI is greater than 100 µM with HOP-62 NSCLC; 40.7 µM with HOP-92 NSCLC; 14.4 µM with IGROV1 ovarian; 99.5 µM in the assay on MALME-3M melanoma; 39.4 µM in the assay with MDA-MB-435; 36.7 µM in the assay with MDA-N. Also, the TGI is greater than 100 µM in the assay with NCI-H460 lung; 47.3 µM with OVCAR-3 ovarian; greater than 100 µM in the assay with OVCAR-8 ovarian; 82.5 µM in the assay with SK-MEL-5 melanoma; greater than 100 µM in the assay on SNB-19 CNS; greater than 100 µM with SW-620 colon. Moreover, in the assay on TK-10 renal, the TGI is greater than 100 µM.

Take `CC(=O)O[C@H]1CCC2[C@@H]3CCC4Cc5nc6c(nc5C[C@]4(C)C3CC[C@@]21C)CC1CC[C@@H]2C(CC[C@@]3(C)C2CC[C@@H]3C(C)CCCC(C)C)[C@@]1(C)C6` (some centres not stated): the TGI in the assay with A549 NSCLC, with ACHN renal, with BT-549 breast, with COLO 205 colon, with EKVX NSCLC and in the assay on HCT-15 colon was greater than 100 µM throughout. Further, the TGI in the assay on HOP-62 NSCLC, in the assay on HOP-92 NSCLC, in the assay on IGROV1 ovarian, in the assay with MALME-3M melanoma, in the assay on MDA-MB-435 and in the assay on MDA-N was greater than 100 µM each time. Further, the TGI in the assay on NCI-H460 lung, with OVCAR-3 ovarian, in the assay with OVCAR-8 ovarian, with SK-MEL-5 melanoma, in the assay on SNB-19 CNS and in the assay on SW-620 colon was greater than 100 µM each time. This molecule gave a TGI in the assay with TK-10 renal greater than 100 µM.

Regarding `C#CCCCOc1ncccn1`, the TGI in the assay with A549 NSCLC, in the assay on ACHN renal, with BT-549 breast, in the assay with COLO 205 colon, in the assay on EKVX NSCLC and with HOP-62 NSCLC was greater than 100 µM each time. In addition, the TGI with HOP-92 NSCLC, with IGROV1 ovarian, in the assay with MALME-3M melanoma, in the assay with MDA-MB-435, with MDA-N and in the assay with NCI-H522 lung was greater than 100 µM each time. Besides, the TGI in the assay with OVCAR-3 ovarian, in the assay on OVCAR-8 ovarian, with SK-MEL-5 melanoma, in the assay with SNB-19 CNS, with SW-620 colon and in the assay on TK-10 renal was greater than 100 µM each time.

Take `CCOC(=O)C(NCc1cccc(C(F)(F)F)c1)(NC(=O)CC)C(F)(F)F` (configuration not stated): the TGI with A549 NSCLC, with ACHN renal, with BT-549 breast, in the assay with COLO 205 colon, with EKVX NSCLC and in the assay on HCT-15 colon was greater than 100 µM in each case. The TGI in the assay on HOP-62 NSCLC, with HOP-92 NSCLC, in the assay on IGROV1 ovarian, in the assay with MALME-3M melanoma, with MDA-MB-435 and in the assay with MDA-N was greater than 100 µM each time. In addition, the TGI with NCI-H522 lung, with OVCAR-3 ovarian, in the assay on OVCAR-8 ovarian, in the assay with SK-MEL-5 melanoma, in the assay on SNB-19 CNS and in the assay with SW-620 colon was greater than 100 µM throughout. This molecule also registered a TGI with TK-10 renal greater than 100 µM.

For the molecule `COc1cc(Nc2nc3ccc(C(F)(F)F)cc3nc2C(=O)O)cc(OC)c1OC`, the TGI is greater than 100 µM with A549 NSCLC; 51.5 µM in the assay with ACHN renal; 37.9 µM with BT-549 breast; 34.6 µM in the assay with COLO 205 colon; 97.2 µM in the assay on EKVX NSCLC; 35.3 µM in the assay on HCT-15 colon. Moreover, the TGI was found to be 48.2 µM in the assay on HOP-62 NSCLC; 66.6 µM in the assay on IGROV1 ovarian; 88.8 µM in the assay on MALME-3M melanoma; 71.1 µM with MDA-MB-435; 46.8 µM in the assay on MDA-N; 48.4 µM in the assay with NCI-H460 lung. Further, the TGI was 51.8 µM in the assay on NCI-H522 lung; 93.5 µM with OVCAR-3 ovarian; 72.1 µM with OVCAR-8 ovarian; greater than 100 µM with SK-MEL-5 melanoma; greater than 100 µM in the assay on SNB-19 CNS; 59.9 µM with SW-620 colon. In the assay on TK-10 renal, the TGI came to 62.2 µM.

Turning to `Cc1cc(-c2nc3ccc(F)cc3s2)ccc1N`, the TGI in the assay with A549 NSCLC, in the assay on ACHN renal, in the assay with BT-549 breast, with COLO 205 colon, in the assay with EKVX NSCLC and with HCT-15 colon was greater than 100 µM in each case. In addition, the TGI with HOP-62 NSCLC, in the assay on HOP-92 NSCLC, in the assay with IGROV1 ovarian, with MALME-3M melanoma, with MDA-MB-435 and in the assay with MDA-N was greater than 100 µM each time. In addition, the TGI with NCI-H522 lung, in the assay on OVCAR-3 ovarian, with OVCAR-8 ovarian, in the assay with SK-MEL-5 melanoma, in the assay on SNB-19 CNS and with SW-620 colon was greater than 100 µM each time. The same molecule showed a TGI in the assay on TK-10 renal greater than 100 µM.

With `CC[C@]12C=CCN3CC[C@@]4(c5cc(Br)c(OC)cc5N(C)[C@H]4[C@@](O)(C(=O)N[C@@H](Cc4ccc(O)cc4)C(=O)OC)[C@@H]1O)[C@@H]32`, the TGI in the assay on A549 NSCLC was greater than 100 µM; in the assay with ACHN renal, greater than 100 µM; in the assay with BT-549 breast, 41.4 µM; in the assay with COLO 205 colon it was 33.1 µM; in the assay with EKVX NSCLC it was greater than 100 µM; in the assay with HCT-15 colon it was 76.3 µM. For the same molecule, the TGI with HOP-62 NSCLC is greater than 100 µM; in the assay on IGROV1 ovarian, 73.3 µM; with MALME-3M melanoma, 29.1 µM; in the assay on MDA-MB-435, 35.8 µM; in the assay on MDA-N, 49.1 µM; in the assay on NCI-H460 lung, 40.5 µM. Further, the TGI in the assay with NCI-H522 lung is 54.4 µM; in the assay on OVCAR-3 ovarian, 89.7 µM; in the assay on OVCAR-8 ovarian, greater than 100 µM; with SK-MEL-5 melanoma, 31.4 µM; in the assay on SNB-19 CNS it was greater than 100 µM; in the assay with SW-620 colon it was greater than 100 µM. In addition, the TGI with TK-10 renal amounted to 79.5 µM.
